Target: T1, N-terminally GST-tagged human full length recombinant Mps-1 kinase (Homo sapiens, UniProt P33981)
T1 construct: N-terminally GST-tagged human full length recombinant Mps-1 kinase; purchased Invitrogen, Karslruhe, Germany PV4071
T1 sequence (P33981 1-857): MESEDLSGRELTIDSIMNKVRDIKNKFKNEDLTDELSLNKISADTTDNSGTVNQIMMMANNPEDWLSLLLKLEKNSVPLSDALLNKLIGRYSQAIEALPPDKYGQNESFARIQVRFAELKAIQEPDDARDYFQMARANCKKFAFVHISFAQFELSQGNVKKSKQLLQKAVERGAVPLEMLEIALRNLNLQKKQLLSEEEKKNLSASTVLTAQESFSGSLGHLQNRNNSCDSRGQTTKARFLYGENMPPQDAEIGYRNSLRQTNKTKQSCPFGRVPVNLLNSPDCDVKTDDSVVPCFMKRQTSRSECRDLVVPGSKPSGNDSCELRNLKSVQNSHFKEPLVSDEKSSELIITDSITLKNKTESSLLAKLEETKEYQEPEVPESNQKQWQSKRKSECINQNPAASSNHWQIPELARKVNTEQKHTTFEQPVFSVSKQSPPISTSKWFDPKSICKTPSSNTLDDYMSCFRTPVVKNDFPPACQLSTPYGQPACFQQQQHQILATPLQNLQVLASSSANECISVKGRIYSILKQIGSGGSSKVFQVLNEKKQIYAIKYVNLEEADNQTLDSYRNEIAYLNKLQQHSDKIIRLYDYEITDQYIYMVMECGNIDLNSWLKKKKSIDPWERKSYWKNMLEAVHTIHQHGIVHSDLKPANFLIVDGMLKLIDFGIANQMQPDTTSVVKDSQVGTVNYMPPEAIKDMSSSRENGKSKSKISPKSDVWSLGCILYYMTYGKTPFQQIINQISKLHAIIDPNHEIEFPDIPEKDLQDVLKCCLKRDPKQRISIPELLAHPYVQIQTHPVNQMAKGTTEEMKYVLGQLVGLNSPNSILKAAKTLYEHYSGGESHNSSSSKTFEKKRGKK
Experiment: Mps-1 kinase assay (TR-FRET)
Assay type: biochemical
Conditions: Mps1 IC50 [nM], 10 μM ATP, 1 μM peptide substrate, 60 min at 22° C.
In short: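 Inhibition of Mps-1 (N-terminal GST fusion, full length) toward a biotinylated peptide is read as Eu-to-XLent TR-FRET. Enzyme level, around 1 nM final, follows lot activity.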

| SMILES | IC50 [nM] |
| --- | --- |
| Cc1cc(Sc2cc(NCC(C)(C)O)c3ncc(-c4ccc(C(=O)NC5CC5)c(C)c4)n3n2)ccc1F [Example 65, N-cyclopropyl-4-{6-[(4-fluoro-3-methylphenyl)sulfanyl]-8-[(2-hydroxy-2-methylpropyl)amino]imidazo[1,2-b]pyridazin-3-yl}-2-methylbenzamide] | 0.7 |
| CCNC(=O)c1ccc(-c2cnc3c(NCC4CCOCC4)cc(Oc4cc(F)ccc4C)nn23)cc1C [Example 599, N-ethyl-4-{6-(5-fluoro-2-methylphenoxy)-8-[(tetrahydro-2H-pyran-4-ylmethyl)a-mino]imidazo[1,2-b]pyridazin-3-yl}-2-methylbenzamide] | 1 |
| Cc1cc(-c2cnc3c(NCCC(F)(F)F)cc(Oc4cccc5ccc(=O)[nH]c45)nn23)ccc1C(=O)NC1CC1 [Example 468, N-cyclopropyl-2-methyl-4-{6-[(2-oxo-1,2-dihydro-quinolin-8-yl)oxy]-8-[(3,3,3-trifluoropropyl)amino]imidazo[1,2-b]pyridazin-3-yl} benzamide] | 7.5 |
| Cc1cc(-c2cnc3c(NCCC(F)(F)F)cc(Oc4ccc(F)nc4)nn23)ccc1C(=O)NC1CC1 [Example 436, N-cyclopropyl-4-{6-[(6-fluoropyridin-3-yl)oxy]-8-[(3,3,3-trifluoropropyl)amino]imidazo[1,2-b]pyridazin-3-yl}-2-methylbenzamide] | 0.1 |
| CC(C)CNc1cc(-c2ccc(CO)cc2)nn2c(-c3ccc(C(=O)NC4CC4)cc3)cnc12 [Example 133, N-cyclopropyl-4-{6-[4-(hydroxymethyl)phenyl]-8-[(2-methylpropyl)amino]imidazo[1,2-b]pyridazin-3-yl}benzamide] | < 1 |
| Cc1cc(-c2cnc3c(NCC(C)(C)O)cc(Nc4cc(F)cc(F)c4)nn23)ccc1C(=O)NC1CC1 [Example 351, N-cyclopropyl-4-{6-[(3,5-difluorophenyl)amino]-8-[(2-hydroxy-2-methylpropyl)amino]imidazo[1,2-b]pyridazin-3-yl}-2-methylbenzamide] | 1 |
| CNC(=O)c1ccc(-c2cnc3c(NCCOC)cc(Oc4cccc(F)c4F)nn23)cc1C [Example 581, 4-{6-(2,3-difluoro-phenoxy)-8-[(2-methoxyethyl)a-mino]imidazo[1,2-b]pyridazin-3-yl}-N,2-dimethylbenzamide] | < 1 |
| CCOc1ccc(-c2cc(NCC(C)(C)O)c3ncc(-c4ccc(C(=O)NC5CC5)c(C)c4)n3n2)cn1 [Example 158, N-cyclopropyl-4-{6-(6-ethoxypyridin-3-yl)-8-[(2-hydroxy-2-methylpropyl)amino]imidazo[1,2-b]pyridazin-3-yl}-2-methylbenzamide] | 6.4 |
| Cc1cc(-c2cnc3c(NCC(O)C(F)(F)F)cc(Cl)nn23)ccc1C(=O)NC1CC1 (racemic) [Example 205, (RS)-4-{6-Chloro-8-[(3,3,3-trifluoro-2-hydroxypropyl)amino]imidazo[1,2-b]pyridazin-3-yl}-N-cyclopropyl-2-methylbenzamide] | 72.7 |
| Cc1cc(F)cc(Sc2cc(NCCCC(F)(F)F)c3ncc(-c4ccc(C(=O)NC5CC5)c(C)c4)n3n2)c1 [Example 449, N-cyclopropyl-4-{6-[(3-fluoro-5-methylphenyl)sulfanyl]-8-[(4,4,4-trifluorobutyl)amino]imidazo[1,2-b]pyridazin-3-yl}-2-methylbenzamide] | 0.6 |
| Cc1cc(-c2cnc3c(NC[C@H]4CC[S@@+]([O-])CC4)cc(Sc4cccc(F)c4)nn23)ccc1C(=O)NC1CC1 [Example 304A, N-cyclopropyl-4-(6-[(3-fluorophenyl)sulfanyl]-8-({[(cis)-1-oxidotetrahydro-2H-thiopyran-4-yl]methyl}amino)imidazo[1,2-b]pyridazin-3-yl)-2-methylbenzamide] | < 0.1 |
| Cc1cc(-c2cnc3c(NCCC(F)(F)F)cc([S+]([O-])c4cccc(F)c4)nn23)ccc1C(=O)NC1CC1 (racemic) [Example 83B, (RS)—N-cyclopropyl-4-{6-[(3-fluorophenyl)sulfinyl]-8-[(3,3,3-trifluoropropyl)amino]imidazo[1,2-b]pyridazin-3-yl}-2-methylbenzamide] | 0.8 |
| COc1ccc(Sc2cc(NCC(C)(C)O)c3ncc(-c4ccc(C(=O)NC5CC5)c(C)c4)n3n2)cc1 [Example 60B, N-cyclopropyl-4-{8-[(2-hydroxy-2-methylpropyl)amino]-6-[(4-methoxyphenyl)sulfanyl]imidazo[1,2-b]pyridazin-3-yl}-2-methylbenzamide] | < 0.1 |
| Cc1cc(-c2cnc3c(NCC(C)(C)O)cc(Sc4ccc(F)c(F)c4)nn23)ccc1C(=O)NC1CC1 [Example 300, N-cyclopropyl-4-{6-[(3,4-difluorophenyl)sulfanyl]-8-[(2-hydroxy-2-methylpropyl)amino]imidazo[1,2-b]pyridazin-3-yl}-2-methylbenzamide] | 0.8 |
| Cc1cc(-c2cnc3c(NCC(C)(C)O)cc(Oc4cccc(F)c4)nn23)ccc1C(=O)NC1CC1 [Example 75, N-cyclopropyl-4-{6-(3-fluorophenoxy)-8-[(2-hydroxy-2-methylpropyl)amino]imidazo[1,2-b]pyridazin-3-yl}-2-methylbenzamide] | < 0.7 |
| Cc1cc(-c2cnc3c(NCC(C)(C)O)cc(Sc4ccccc4O)nn23)ccc1C(=O)NC1CC1 [Example 73A, N-cyclopropyl-4-{8-[(2-hydroxy-2-methylpropyl)amino]-6-[(2-hydroxyphenyl)sulfanyl]imidazo[1,2-b]pyridazin-3-yl}-2-methylbenzamide] | < 0.7 |
| Cc1cc(-c2cnc3c(NCc4cc[nH]n4)cc(Oc4cccc(F)c4)nn23)ccc1C(=O)NC1CC1 [Example 489, N-cyclopropyl-4-{6-(3-fluoro-phenoxy)-8-[(1H-pyrazol-3-ylmethyl)amino]imidazo [1,2-b]pyridazin-3-yl}-2-methylbenzamide] | 0.2 |
| CC(C)CNc1cc(Cl)nn2c(-c3ccc4c(NC5CC5)noc4c3)cnc12 [Example 183, 6-Chloro-3-[3-(cyclopropylamino)-1,2-benzoxazol-6-yl]-N-(2-methylpropyl)imidazo[1,2-b] pyridazin-8-amine] | 290 |
| Cc1cc(-c2cnc3c(NCCN4CCCC4)cc(Oc4cccc(F)c4)nn23)ccc1C(=O)NC1CC1 [Example 502, N-cyclopropyl-4-[6-(3-fluoro-phenoxy)-8-{[2-(pyrrolidin-1-yl)ethyl]amino}imidazo[1,2-b]pyridazin-3-yl]-2-methyl-benzamide] | 0.2 |
| Cc1cc(-c2cnc3c(NCC(C)(C)O)cc(Oc4cccc(OCC(C)(C)O)c4)nn23)ccc1C(=O)NC1CC1 [Example 275, N-cyclopropyl-4-{6-[3-(2-hydroxy-2-methylpropoxy)phenoxy]-8-[(2-hydroxy-2-methylpropyl)amino]imidazo[1,2-b]pyridazin-3-yl}-2-methylbenzamide] | 5.4 |
| Cc1cc(-c2cnc3c(NCCn4cccn4)cc(Oc4cccc(F)c4)nn23)ccc1C(=O)NC1CC1 [Example 515, N-cyclopropyl-4-[6-(3-fluoro-phenoxy)-8-{[2-(1H-pyrazol-1-yl)ethyl]amino}imidazo[1,2-b]pyridazin-3-yl]-2-methyl-benzamide] | 0.4 |
| COc1ccc(C)c(Nc2cc(NCCC(F)(F)F)c3ncc(-c4ccc(C(=O)NC5CC5)c(C)c4)n3n2)c1 [Example 430, N-cyclopropyl-4-{6-[(5-methoxy-2-methylphenyl)amino]-8-[(3,3,3-trifluoropropyl)amino]imidazo[1,2-b]pyridazin-3-yl}-2-methylbenzamide] | 0.3 |
| Cc1ccc(F)cc1Sc1cc(NCCC(F)(F)F)c2ncc(-c3ccc(C(=O)NC4CC4)c(C)c3)n2n1 [Example 269, N-cyclopropyl-4-{6-[(5-fluoro-2-methylphenyl)sulfanyl]-8-[(3,3,3-trifluoropropyl)amino]imidazo[1,2-b]pyridazin-3-yl}-2-methylbenzamide] | 0.3 |
| Cc1cc(-c2cnc3c(NCC(C)(C)O)cc(-c4cnn(C)c4)nn23)ccc1C(=O)NC1CC1 [Example 154, N-cyclopropyl-4-{8-[(2-hydroxy-2-methylpropyl)amino]-6-(1-methyl-1H-pyrazol-4-yl)imidazo[1,2-b]pyridazin-3-yl}-2-methylbenzamide] | 25 |
| Cc1cc(-c2cnc3c(NCCC(F)(F)F)cc(Nc4ccc(Cl)cc4)nn23)ccc1C(=O)NC1CC1 [Example 374, 4-{6-[(4-chlorophenyl)amino]-8-[(3,3,3-trifluoropropyl)amino]imidazo[1,2-b]pyridazin-3-yl}-N-cyclopropyl-2-methylbenzamide] | 0.3 |
